# pEC50: −log10 of the molar value. Like-named read-outs stand apart in the source and are kept apart here.
# Experiments:
# Type in all cases: cell-based
# HSV-2 (G strain) = assay: HSV plaque reduction assay in Vero cells, HSV-2; settings: read-out: Antiviral Effect: EC50 HSV-2
# Method: (§1) HSV Preparation: Confluent HEp-2 cells, in a roller bottle (Falcon, 850 cm^2), were infected at an input multiplicity of 0.01 PFU per cell (to minimize production of defective viruses). During the two-hour absorption period, the cells were exposed to the virus inoculum diluted in absorption buffer (10 ml PBS containing 1% newborn calf serum and 0.1% glucose). The virus inoculum was then removed and replaced with Hanks' Minimum Essential Medium (MEM) containing 2% inactivated newborn calf serum, penicillin (100 U/ml) and streptomycin (100 μg/ml) (P and S), sodium bicarbonate (2 g/L) and HEPES (25 mM) (maintenance medium). The infected cells were incubated at 37° C. for 3 to 4 days, until the cells could be easily shaken from the plastic surface of the culture bottles. The cells were then collected by centrifugation, suspended in a small volume of spent culture fluid (5 ml per 2×10^8 cells) and sonicated 3 times for one min on ice. The disrupted cells were centrifuged (2,000 g for 15 min at 4° C. and the supernatant was diluted with an equal volume of sterile skimmed milk (as stabilizer) and aliquots were frozen at −70° C.
# (§2) HSV Plaque Reduction Assay: Near confluent Vero (African Green Monkey) cells in 6-well plates were infected with 100 μl virus diluted in absorption buffer to give 100-200 plaques per well. The plates were then incubated at 37° C. for 1 hour with intermittent rocking every 15 minutes. The inoculum was aspirated and the compounds at different concentrations (dissolved in maintenance medium) were added to replicate wells. For these assays, 0.1% pooled human gamma globulin was included in the media. The plates were placed in 5% CO2-95% air incubator and the plaques were allowed to develop for 48 h prior to fixation (buffered 10% Formalin acetate), staining (0.5% crystal violet in 20% EtOH/H2O) and enumeration. The degree of inhibition (percent plaques of control) was calculated by counting the mean plaque counts for the different drug dilutions. […] For routine antiviral drug screening, we used the F strain of HSV-1 and the G strain of HSV-2 (Ejercito, et al., “Characterization of Herpes Simplex virus Strains Differing in Their Effect on Social Behavior of Infected Cells,” J. Gen. Virol. 2, 357-364 (1968)). […] Acyclovir (ACV) was used as a positive control for the studies on HSV.
# (§3) Median-Effect Method: EC50 and IC50 values were obtained by analysis of the data using the median-effect equation (Chou, T., et al., “Quantitative Analysis of Dose-Effect Relationships: The Combined Effects of Multiple Drugs or Enzyme Inhibitors,” Adv. Enz. Regul. 22, 27-55 (1984).
# HIV-1 (strain LAV-1) = assay: Inhibition of HIV-1 replication in human PBMC (supernatant RT activity); settings: Human immunodeficiency virus 1, PBMC
# Method: Cells: Human peripheral blood mononuclear cells (PBMC) from healthy HIV-1 seronegative and hepatitis B virus seronegative donors were isolated by Ficoll-Hypaque discontinuous gradient centrifugation at 1,000×g for 30 minutes, washed twice in phosphate-buffered saline (pH 7.2; PBS), and pelleted at 300×g for 10 minutes. Before infection, the cells were stimulated by phytohemagglutinin (PHA) at a concentration of 16.7 μg/ml, and 4 mM sodium bicarbonate buffer.
# Retrovirus: HIV-1 (strain LAV-1) was obtained from Dr. P. Feorino (Centers for Disease Control, Atlanta, Ga.). The virus was propagated in human PBMC using RPMI 1640 medium, as described previously by McDougal, et al., (“Immunoassay for the detection and quantitation of infectious human retrovirus, lymphadenopathy-associated virus (LAV),” J. Immun. Meth. 76, 171-183, 1985) without PBA or fungizone and supplemented with 7% (v/v) interleukin-2 (Advanced Biotechnologies, Silver Spring, Md.), 7 μg/ml DEAE-dextran (Pharmacia, Uppsala, Sweden), and 370 U/ml anti-human leukocyte (alpha) interferon (ICN, Lisle, Ill.). Virus obtained from cell-free culture supernatant was titrated and stored in aliquots at −70° C. until use.
# Inhibition of Virus Replication in Human PBMC: Uninfected PHA-stimulated human PBMC were uniformly distributed among 25 cm^2 flasks to give a 5 ml suspension containing about 2×10^6 cells/ml. Suitable dilutions of virus were added to infect the cultures. The mean reverse transcriptase (RT) activity of the inocula was 50,000 dpm/ml corresponding to about 100 TCID50, as determined by Groopman, et al., (1987), “Characterization of Serum Neutralization Response to the Human Immunodeficiency Virus (HIV),” AIDS Res. Human Retro. 3, 71-85. The drugs, at twice their final concentrations in 5 ml of RPMI 1640 medium (supplemented as described above), were added to the cultures. Uninfected and untreated PBMC at equivalent cell densities were grown in parallel as controls. The cultures were maintained in a humidified 5% CO2-95% air incubator at 37° C. for six days after infection at which point all cultures were sampled for supernatant RT activity.
# RT Activity Assay: A […] aliquot of supernatant from each culture was clarified of cells at 300×g for 10 minutes. […]
# The RT assay was performed in 96-well microtiter plates, as described by Spira, et al. (1987), “Micromethod for Assaying the Reverse Transcriptase of LAV-HTLV-III/Lymphadenopathy-Associated Virus,” J. Clin. Microbiol. […] Four ml of scintillation fluid (Econofluor, NEN Research Products, Boston, Mass.) were added and the amount of radioactivity in each sample was determined using a Packard Tri-Carb liquid scintillation analyzer (model 2,000CA). […]
# HSV-1 (F strain) = assay: HSV plaque reduction assay in Vero cells, HSV-1; settings: read-out: Antiviral Effect: EC50 HSV-1
# Method: as §1, §2, §3
SMILES,"pEC50 (HSV-2 (G strain); Human alphaherpesvirus 2, Vero)",pEC50 (HSV-2 (G strain); dark),"pEC50 (HIV-1 (strain LAV-1); read-out: Antiviral Effect: EC50 HIV-1, dark)","pEC50 (HIV-1 (strain LAV-1); read-out: Antiviral Effect: EC50 HIV-1, light)","pEC50 (HSV-1 (F strain); Human alphaherpesvirus 1, Vero)",pEC50 (HSV-1 (F strain); dark),"pEC50 (HSV-2 (G strain); Human alphaherpesvirus 2, Vero, dark)","pEC50 (HSV-2 (G strain); Human alphaherpesvirus 2, Vero, light)","pEC50 (HIV-1 (strain LAV-1); light, read-out: Antiviral Effect: EC50 HIV-1)","pEC50 (HSV-1 (F strain); Human alphaherpesvirus 1, Vero, dark)","pEC50 (HSV-1 (F strain); Human alphaherpesvirus 1, Vero, light)"
"CN(C)c1ccc2nc3ccc(N(C)C)cc3[s+]c2c1.[Cl-] [MB, 3,7-Bis(dimethylamino)phenothiazin-5-ium chloride]",≤ 5.00,≤ 5.00,6.85,7.55,≤ 5.00,≤ 5.00,–,–,–,–,–
"Nc1nc2c(ncn2COCCO)c(=O)[nH]1 [ACV, Acyclovir]",–,–,–,–,–,–,6.80,6.29,< 4.00,7.89,7.66

# From patent US6346529B1, “Antiviral therapy using thiazine dyes” (Oklahoma Medical Research Foundation, priority 1988, dated 2002)
